Some test systems named below: A498 renal; DU-145 prostate; HS 578T breast; LOX IMVI melanoma; SK-MEL-28 melanoma; K-562 leukemia; OVCAR-4 ovarian; SW-620 colon.
Holding throughout (test): inhibition of tumour cell growth, NCI panel, 48 h

Each structure is given as a SMILES string. Values joined by “and” are separate entries in the source; they are usually repeats but may differ in a detail not shown here. Identical values can stand only once.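 Grown in 96-well plates, cells were treated for 48 hours with each compound at five concentrations. Insufficient inhibition: endpoint recorded as highest concentration tested. GI50 is the concentration that inhibits growth by half. TGI is the concentration that stops growth completely.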

For `Cn1cc(-c2ccc3c(c2)ncn3-c2cc(NS(=O)(=O)C3CC3)cc(-c3ccc(F)cc3F)c2)cn1`, the GI50 in the experiment with A498 renal was 0.074 µM; in the experiment with DU-145 prostate, 21.2 µM; with HS 578T breast, 1.68 µM; in the experiment on LOX IMVI melanoma, 5.75 µM; with SK-MEL-28 melanoma, 20.9 µM; with K-562 leukemia, 4.31 µM. Further, the GI50 in the experiment on OVCAR-4 ovarian was 3.45 µM; in the experiment with SW-620 colon it was 39.1 µM. Besides, the TGI in the experiment with A498 renal is 0.542 µM; in the experiment with DU-145 prostate it was > 100 µM; in the experiment with HS 578T breast, 12.6 µM; in the experiment on LOX IMVI melanoma, 42 µM; with SK-MEL-28 melanoma it was > 100 µM; with K-562 leukemia, 72.1 µM. The TGI with OVCAR-4 ovarian and with SW-620 colon was > 100 µM each time.

`COc1ccc(-n2c(=O)c3ccccc3n(Cc3ccc(C(=O)NO)cc3)c2=O)cc1`: the GI50 in the experiment with A498 renal was 1.09 µM; in the experiment with DU-145 prostate it was 3.24 µM; in the experiment on HS 578T breast, 2.67 µM; in the experiment with LOX IMVI melanoma, 1.76 µM; with SK-MEL-28 melanoma it was 2.18 µM; in the experiment with K-562 leukemia, 3.11 µM. Moreover, the GI50 is 2.86 µM with OVCAR-4 ovarian and 2.13 µM in the experiment with SW-620 colon. Also, the TGI was 3.25 µM in the experiment on A498 renal; > 100 µM in the experiment with DU-145 prostate; 24.2 µM in the experiment with HS 578T breast; 3.24 µM in the experiment on LOX IMVI melanoma; 5.83 µM with SK-MEL-28 melanoma; > 100 µM in the experiment on K-562 leukemia. Moreover, the figures for the TGI in the experiment with OVCAR-4 ovarian and in the experiment on SW-620 colon were 20 µM and 6.97 µM, respectively.

On to `CN1CCN(C(=O)/C=C/c2ccc([N+](=O)[O-])o2)CC1`, for which the GI50 is 16.8 µM with A498 renal; 9.33 µM with DU-145 prostate; 46.5 µM in the experiment on HS 578T breast; 4.46 µM in the experiment on LOX IMVI melanoma; 9.59 µM with SK-MEL-28 melanoma; 11 µM with K-562 leukemia. Also, the GI50 is 14.2 µM with OVCAR-4 ovarian and 15.8 µM in the experiment on SW-620 colon. Also, the TGI is 34.3 µM with A498 renal; 21.2 µM in the experiment with DU-145 prostate; > 100 µM in the experiment on HS 578T breast; 17 µM in the experiment with LOX IMVI melanoma; 49.3 µM with SK-MEL-28 melanoma; 40.4 µM in the experiment on K-562 leukemia. For the same compound, the TGI is 27.9 µM in the experiment with OVCAR-4 ovarian and 37.1 µM with SW-620 colon.

As to `COc1ccc([C@@H]2[C@@H](Oc3ccccc3)C(=O)N2c2cc(OC)c(OC)c(OC)c2)cc1F`, the GI50 in the experiment with A498 renal is 0.0238 µM; in the experiment on DU-145 prostate, 0.378 µM; in the experiment with HS 578T breast it was 0.0864 µM; in the experiment with LOX IMVI melanoma, 0.091 µM; in the experiment with SK-MEL-28 melanoma it was 0.26 µM; in the experiment on K-562 leukemia, 0.0417 µM. Besides, the GI50 is 2.57 µM with OVCAR-4 ovarian and 0.0769 µM in the experiment with SW-620 colon. The TGI in the experiment with A498 renal is 0.0983 µM; with DU-145 prostate, > 100 µM; in the experiment on HS 578T breast, 77.9 µM; in the experiment with LOX IMVI melanoma it was > 100 µM; with SK-MEL-28 melanoma it was > 100 µM; in the experiment with K-562 leukemia, > 100 µM. The TGI in the experiment with OVCAR-4 ovarian and in the experiment with SW-620 colon was > 100 µM throughout.

For `CNS(=O)(=O)Nc1nccc(Cc2c(C)c3ccc(Oc4ncccn4)cc3oc2=O)c1F`, the GI50 in the experiment with A498 renal was 0.0424 µM and 0.0459 µM; with DU-145 prostate it was 39 µM and > 10 µM; with HS 578T breast it was > 100 µM; in the experiment with LOX IMVI melanoma it was 0.356 µM and 0.977 µM; in the experiment with SK-MEL-28 melanoma it was 0.0234 µM and 0.00549 µM; with K-562 leukemia it was 2.21 µM and 1.62 µM. The GI50 in the experiment with OVCAR-4 ovarian is 4.33 µM and > 5.62 µM; in the experiment on SW-620 colon, 0.0194 µM and 0.0159 µM. The TGI with A498 renal was 1.38 µM and 0.531 µM; in the experiment on DU-145 prostate it was > 100 µM; in the experiment with HS 578T breast it was > 100 µM; with LOX IMVI melanoma it was > 100 µM; in the experiment with K-562 leukemia, > 100 µM; with OVCAR-4 ovarian, > 100 µM. The TGI in the experiment on SW-620 colon is > 100 µM.

On to `O=C1C[C@@H]2OCC=C3C[N+]4([O-])CC[C@]56c7ccccc7N1[C@H]5[C@H]2[C@H]3C[C@@H]64` (stereo partly specified), for which the GI50 in the experiment on A498 renal, in the experiment with DU-145 prostate, in the experiment with HS 578T breast, with LOX IMVI melanoma, in the experiment with SK-MEL-28 melanoma and with K-562 leukemia was > 100 µM throughout. The GI50 in the experiment on OVCAR-4 ovarian and with SW-620 colon was > 100 µM throughout. The TGI in the experiment with A498 renal, in the experiment with DU-145 prostate, in the experiment on HS 578T breast, in the experiment on LOX IMVI melanoma, with SK-MEL-28 melanoma and with K-562 leukemia was > 100 µM in each case. In addition, the TGI in the experiment on OVCAR-4 ovarian and in the experiment on SW-620 colon was > 100 µM throughout.

As for `O=C1[C@H](Cc2ccc(O)cc2)N2C(=O)CCN(C(=O)NCc3ccccc3)[C@H]2CN1Cc1cccc2ccccc12`, the GI50 in the experiment on A498 renal is 1.38 µM; with DU-145 prostate it was 4.55 µM; in the experiment on HS 578T breast, 0.851 µM; in the experiment with LOX IMVI melanoma, 1.43 µM; in the experiment on SK-MEL-28 melanoma, 0.79 µM; in the experiment with K-562 leukemia it was 2.06 µM. In addition, the GI50 is 0.781 µM in the experiment with OVCAR-4 ovarian and 4.49 µM in the experiment on SW-620 colon. Further, the TGI in the experiment on A498 renal is 6.75 µM; in the experiment with DU-145 prostate, 46.5 µM; in the experiment on HS 578T breast, 7.24 µM; in the experiment on LOX IMVI melanoma, 14.4 µM; in the experiment on SK-MEL-28 melanoma it was 9.63 µM; with K-562 leukemia it was > 100 µM. Moreover, the results for the TGI in the experiment on OVCAR-4 ovarian and in the experiment with SW-620 colon were > 49.9 µM and > 55 µM, respectively.

These data come from PubChem BioAssay (NCI).
